The numbers were not newly measured in patent US20020082283A1, “Nitrogen-containing compounds and their use as glycine transport inhibitors” (Gliatech, Inc., priority 2000, published 2002), which cites them from elsewhere.

The structures appear in SMILES notation.

The data set concerns NMDA receptor. The settings on record: in vitro at concentrations at which clinical efficacy is seen.

As to `O=C(CCCN1CCC(O)(c2ccc(Cl)cc2)CC1)c1ccc(F)cc1` [haloperidol], the “increase in NMDA receptor activity” value is given as roughly 40%.
